The text below walks through data of patent US20150038435A1, “N-TERMINALLY MODIFIED OLIGOPEPTIDES AND USES THEREOF” (Novo Nordisk A/S, priority 2012, published 2015).

Series [1] relates to Chymotrypsin. Nature of the series: Inhibition of enzymatic degradation of a model GLP-1 (FRET substrate) by chymotrypsin. As to conditions: for EC50: read-out: EC50 Chymotrypsin (0.001 mg/ml), 0.001 mg/ml chymotrypsin, 37° C., ± standard error if at least 3 measurements. The series is classed as biochemical. The method, boiled down:
(§1)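 MCA/DNP-labelled model GLP-1 FRET substrate (10 μl of 100 μM stock) in Dulbecco's PBS at 37° C with varying acylated peptide; fluorescence (ex 320/em 405 nm) read every minute for ≥30 min. Initial slopes from linear regression, duplicates averaged; EC50 by sigmoidal logistic fit of slope vs concentration.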

A short description of series [2]: Hydrophobicity: retention time during reverse phase HPLC. As to conditions: Acquity CSH C18; pH 7.2 buffer/CH3CN gradient; 40° C. Type of series: physicochemical. The text has this:
The retention time (RT) during reverse phase HPLC was taken as a measure of hydrophobicity of an N-terminally modified peptide or oligopeptide of the invention, where the connection is: The longer the RT, the more hydrophobic N-terminally modified peptide or oligopeptide. The following running conditions were applied during HPLC analysis:
Buffer B: 70% (v/v) aq. CH3CN

The test system of another series is Trypsin. Kind of series: Inhibition of enzymatic degradation of a model GLP-1 (FRET substrate) by trypsin. Type of series: biochemical. As to conditions: for EC50: read-out: EC50 Trypsin (0.001 mg/ml), 0.001 mg/ml trypsin, 37° C. The method, boiled down: as §1
Series [3] in a line: Stability of N-terminally acylated peptides or oligopeptides in GI juice. The series is classed as in vitro ADME. As to conditions: GI juice (jejunum extract); degradation of the compound itself in jejunum extract from rat; read-out: t 1/2 in rat GI juice. Here is the method:
96 well plates were coated by incubating with 0.4% Bovine serum albumin (BSA) solution for minimum of 60 min. To each well, 210 μl of buffer (Hank's balanced salt solution-4-(2-hydroxyethyl)-1-piperazineethanesulfonic acid (HBSS-HEPES) buffer) with 0.005% Tween 20 and 0.001% BSA, pH 6.5 precipitated with 3 vol. cold 96% ethanol (EtOH) w. 1% TFA), 30 μl of a substrate (100 μM insulin analogue or GLP-1 analogue in buffer) and 30 μl of N-terminally acylated peptide or oligopeptide of the invention (10 mM) were added. The plates were pre-incubated (before adding GI juice) for 60 min at 37° C. After addition of 30 μl of GI juice (10-times diluted in buffer), the plates were incubated for 60 min/37° C. on shaker. Samples (40 μl) were taken at 0, 5, 10, 20, 30 and 60 min, stopped with 3 vol. cold 96% EtOH w. 1% TFA and spun down in plates (4500 rpm for 10 min). Samples were diluted 5 times with the buffer prior to LC-MS analysis. Standard samples (0.1, 0.5, 1.0, 5.0, 10.0 μM) were prepared and treated as the samples. Standard curve was analysed both at the beginning and the end of the sequence. Two replicates of each tested conditions were included. Ion suppression was assessed by analyzing a standard at 1 μM and at 10 μM with 1 mM inhibitor present. Intact insulin or GLP-1 analoues were determined at each sample. The results were plotted against the incubation time. Half-lives of the insulin or GLP-1 analogues were determined by nonlinear regression of the results using, for example Graph Pad Prism. The half-lives were expressed relative to the half-live of the insulin or GLP-1 analogue without inhibitor present by dividing the half-lives obtained in the presence of inhibitor with those obtained in the absence of inhibitors. GI juice was prepared from male Sprague Dawley rats (200-250 g) by excising approximately 20 cm piece of mid jejunum and rinsing the inside with 2.5 ml 0.9% sodium chloride solution. The sodium chloride solution was collected in a centrifuge tube, pooled from all rats (20) and centrifuged at 4500 rpm./10 min/4° C. The supernatant was aliquoted in tubes and stored at −80° C.
Degradation of the N-terminally fatty acid modified peptide or oligopeptide of the invention themselves in jejunum extract from rat (GI juice) and determination of half-lives, was measured as described above (example 200).

The target of series [4] is Chymotrypsin. Kind of series: Inhibition of enzymatic degradation of a chromogenic substrate (Example 202). The series is classed as biochemical. As to conditions: substrate N-succinyl-Ala-Ala-Pro-Phe-p-Nitroanilide. The text has this: The use of chromogenic substrates to monitor activity of proteolytic enzymes is known in the field (for example DelMar, E. G., et al., Anal. Biochem., 99, 316-320, (1979)). For example, N-succinyl-Ala-Ala-Pro-Phe-p-Nitroanilide is commonly used substrate for measuring chymotrypsin activity. Enzymatic cleavage of 4-nitroanilide substrates yields 4-nitroaniline (yellow color under alkaline conditions).
An assay following the increase in absorbance at 395 nm as a function of time was established in 96 well format using Varioskan Flash Multimode Meter (Thermo Scientific). Each well contained 70 μl of Dulbecco's phosphate buffer saline (Invitrogen catalogue #14190-094), 10 μl of N-succinyl-Ala-Ala-Pro-Phe-p-Nitroanilide (Sigma cat# S 7388) in DMSO (different concentrations were used in order to obtain the inhibition constant), 10 μl of N-terminally acylated peptide or oligopeptide of the invention in varying concentration and 10 μl of a stock solution of an enzyme (chymotrypsin, trypsin, elastase, etc.). The incubations were performed at 37° C. Absorbance at 395 nm was measured immediately after addition of the enzyme to the 96 well plate and also every minute for the next 80 minutes. The concentration of the enzyme was optimized to allow determination of slopes for the time course of initial absorbance increase with and without added inhibitors. The slopes were determined by linear regression of the linear part of the fluorescence trace (for example, the first 10 min of the reaction). Each assay was performed in duplicate and average of the two traces was included in the calculations. The relative effect of N-terminally acylated peptide or oligopeptides of the invention on enzymatic degradation of N-succinyl-Ala-Ala-Pro-Phe-p-Nitroanilide was obtained by comparison of the slopes achieved by the same concentration of the N-terminally acylated peptide or oligopeptides. […] This was done by plotting the slopes achieved with different concentrations of the N-terminally acylated peptide or oligopeptides of the invention as a function of their concentrations and fitting the experimental results using, for example, sigmoidal logistic regression (2 parameters, Sigma Plot v 11). Inhibition constants for the interaction between the N-terminally acylated peptide or oligopeptides of the invention and proteolytic enzymes were also obtained by performing the assay described above with varying concentrations of the inhibitor and substrate and analyzing the results, for example, by double reciprocal transformation as known to the person skilled in the art and described for example in Hubalek, F. et al., J. Med. Chem. 47, 1760-1766 (2004).

Starred links: 1 amine or outer side, 2 acyl side, 3 side chain; linkers in the order of their positions; H or OH if unused. Non-standard residues stand in square brackets, D forms with d. Residues, ends and D or L forms follow the SMILES beside them. *: point of attachment. γGlu = O=C(O)[C@H](CCC(=O)[*:2])N[*:1]; Myristoyl = CCCCCCCCCCCCCC(=O)*; Decanoyl = CCCCCCCCCC(=O)*

As for `CCCCCCCCCCCCCC(=O)N[C@@H](CCC(=O)N[C@@H](C)C(=O)N1CCC[C@H]1C(=O)N[C@@H](Cc1ccccc1)C(=O)O)C(=O)O` [Example 23, N-tetradecanoyl-γGlu-Ala-Pro-Phe-OH] ({Myristoyl-γGlu}-Ala-Pro-Phe-OH), the EC50 was 144 µM with Chymotrypsin [1] and 44 µM with Trypsin. In addition, the “RT (retention time during reverse phase HPLC as a measure of hydrophobicity)” value (“RT” for short) in series [2] is 5.29 min. In addition, the half-life in series [3] was 4.4 min.

As for `CCCCCCCCCCCCCC(=O)N[C@H](C)C(=O)N[C@H](C)C(=O)N1CCC[C@@H]1C(=O)N[C@H](Cc1ccccc1)C(=O)O` [Example 2, N-tetradecanoyl-DAla-DAla-DPro-DPhe-OH] (Myristoyl-[dA][dA][dP][dF]-OH), the “Slope of the initial increase in fluorescence obtained during incubation with 0.001 mg/ml Chymotrypsin” value with Chymotrypsin [1] (compound 1 mM) stood at 0.05. In addition, the EC50 with Chymotrypsin [1] worked out at 85 µM; with Trypsin it was 112 µM. Also, the “RT” value in series [2] was determined as 9.74 min. The “Slope of the initial increase in fluorescence obtained during incubation with 0.001 mg/ml Trypsin” value in the series with Trypsin (compound 1 mM) is reported as 0.15. Further, the half-life in series [3] was 610 min.

As to `CCCCCCCCCCCCCC(=O)N[C@@H](CCC(=O)N[C@H](C)C(=O)N1CCC[C@@H]1C(=O)N[C@H](Cc1ccccc1)C(=O)O)C(=O)O` [Example 148, N-tetradecanoyl-γGlu-DAla-DPro-DPhe-OH] ({Myristoyl-γGlu}-[dA]-[dP]-[dF]-OH), in the series with Chymotrypsin [1], the EC50 turned out to be 322 µM. Also, in series [3], the half-life is above 1000 min.

With `CCCCCCCCCCCCCC(=O)N[C@@H](Cc1c[nH]cn1)C(=O)N[C@@H](C)C(=O)N[C@@H](CCCNC(=N)N)C(=O)N1CCC[C@H]1C(=O)N[C@@H](Cc1ccccc1)C(=O)O` [Example 178, N-tetradecanoyl-His-Ala-Arg-Pro-Phe-OH] (Myristoyl-HARPF-OH), the EC50 worked out at 32 µM in the series with Chymotrypsin [1] and 102 µM with Trypsin. Besides, in series [3], the half-life amounted to 4.5 min.

By Ki is commonly meant a measure of affinity in units of concentration, obtained from inhibition or displacement. Higher therefore signals weaker binding. For “N-decanoyl-Ala-Ala-Pro-Phe-OH (Decanoyl-AAPF-OH) [Example 33]”, in series [2], the “RT” value came out at 4.93 min. Besides, the affinity at Chymotrypsin [4] corresponds to a Ki of 850 µM.
